According to ChEMBL document CHEMBL1147947, “In vitro activity of novel dual action MDR anthranilamide modulators with inhibitory activity on CYP-450 (Part 2)” (Bioorg Med Chem, 2007):
Activity calls are given as the source filed them. The rule behind the calls is not given here.

Tests used:
Cytochrome P450 2C9 = Cytochrome P450 2C9 (Homo sapiens, UniProt P11712); assay: Inhibition of human CYP2C9 expressed in insect microsome after 45 mins; assay type: ADME, microsomes
Cytochrome P450 2C19 = Cytochrome P450 2C19 (Homo sapiens, UniProt P33261); assay: Inhibition of human CYP2C19 expressed in insect microsome after 30 mins; assay type: ADME, microsomes
Chain of Cytochrome P450 2C19 (P33261 whole entry): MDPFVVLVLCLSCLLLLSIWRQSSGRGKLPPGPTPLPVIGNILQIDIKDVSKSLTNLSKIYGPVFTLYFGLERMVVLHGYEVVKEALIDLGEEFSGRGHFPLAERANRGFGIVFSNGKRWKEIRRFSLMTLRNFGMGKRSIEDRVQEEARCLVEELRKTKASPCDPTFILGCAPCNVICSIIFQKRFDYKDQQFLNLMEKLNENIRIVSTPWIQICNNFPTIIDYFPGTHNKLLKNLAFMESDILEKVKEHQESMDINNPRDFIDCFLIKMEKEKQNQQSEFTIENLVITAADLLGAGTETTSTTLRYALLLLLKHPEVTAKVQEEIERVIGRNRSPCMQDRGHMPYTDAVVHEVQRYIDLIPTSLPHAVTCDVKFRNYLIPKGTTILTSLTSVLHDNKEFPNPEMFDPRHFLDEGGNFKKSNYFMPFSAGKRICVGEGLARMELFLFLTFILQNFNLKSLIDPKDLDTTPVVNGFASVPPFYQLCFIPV

Cytochrome P450 2D6 = Cytochrome P450 2D6 (Homo sapiens, UniProt P10635); assay: Inhibition of human CYP2D6 expressed in insect microsome after 30 mins; assay type: ADME, microsomes
Chain of Cytochrome P450 2D6 (P10635 whole entry): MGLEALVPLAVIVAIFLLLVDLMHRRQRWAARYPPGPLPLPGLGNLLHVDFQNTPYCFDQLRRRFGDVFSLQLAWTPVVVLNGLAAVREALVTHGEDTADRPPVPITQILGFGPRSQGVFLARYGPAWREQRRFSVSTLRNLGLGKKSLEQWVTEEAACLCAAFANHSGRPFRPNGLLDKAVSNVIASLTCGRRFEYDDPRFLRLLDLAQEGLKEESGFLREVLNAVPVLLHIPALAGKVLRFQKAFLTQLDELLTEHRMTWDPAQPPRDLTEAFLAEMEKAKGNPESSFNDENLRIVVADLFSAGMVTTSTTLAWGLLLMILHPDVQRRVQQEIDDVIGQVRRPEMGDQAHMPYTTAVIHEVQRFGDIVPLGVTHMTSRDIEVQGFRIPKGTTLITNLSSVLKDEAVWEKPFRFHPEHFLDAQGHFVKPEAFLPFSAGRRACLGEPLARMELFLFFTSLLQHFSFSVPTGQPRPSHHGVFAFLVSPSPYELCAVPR

Cytochrome P450 2E1 = Cytochrome P450 2E1 (Homo sapiens, UniProt P05181); assay: Inhibition of human CYP2E1 expressed in insect microsome after 45 mins; assay type: ADME, microsomes
Chain of Cytochrome P450 2E1 (P05181 whole entry): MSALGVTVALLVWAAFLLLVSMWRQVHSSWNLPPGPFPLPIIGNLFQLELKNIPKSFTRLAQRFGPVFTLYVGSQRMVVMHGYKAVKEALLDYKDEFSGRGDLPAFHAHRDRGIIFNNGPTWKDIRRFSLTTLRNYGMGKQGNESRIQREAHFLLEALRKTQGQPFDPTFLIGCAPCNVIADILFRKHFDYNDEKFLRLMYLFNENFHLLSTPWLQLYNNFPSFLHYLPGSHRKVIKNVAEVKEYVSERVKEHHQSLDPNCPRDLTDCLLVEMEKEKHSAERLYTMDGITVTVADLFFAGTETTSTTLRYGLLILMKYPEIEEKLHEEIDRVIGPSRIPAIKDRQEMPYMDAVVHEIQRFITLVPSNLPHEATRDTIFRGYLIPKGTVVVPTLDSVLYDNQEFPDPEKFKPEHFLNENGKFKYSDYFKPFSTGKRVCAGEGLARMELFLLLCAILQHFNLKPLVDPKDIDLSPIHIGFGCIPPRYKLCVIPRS

[1] = Growth inhibition of human CEM/VLB500 cells after 3 days by resazurin assay; assay type: functional; conditions: CEM/VLB500, 72 h
Cytochrome P450 2A6 = target: T1, Cytochrome P450 2A6 (Homo sapiens, UniProt P11509); assay: Inhibition of human CYP2A6 expressed in insect microsome after 15 mins; assay type: ADME, microsomes
T1 sequence (P11509 whole entry): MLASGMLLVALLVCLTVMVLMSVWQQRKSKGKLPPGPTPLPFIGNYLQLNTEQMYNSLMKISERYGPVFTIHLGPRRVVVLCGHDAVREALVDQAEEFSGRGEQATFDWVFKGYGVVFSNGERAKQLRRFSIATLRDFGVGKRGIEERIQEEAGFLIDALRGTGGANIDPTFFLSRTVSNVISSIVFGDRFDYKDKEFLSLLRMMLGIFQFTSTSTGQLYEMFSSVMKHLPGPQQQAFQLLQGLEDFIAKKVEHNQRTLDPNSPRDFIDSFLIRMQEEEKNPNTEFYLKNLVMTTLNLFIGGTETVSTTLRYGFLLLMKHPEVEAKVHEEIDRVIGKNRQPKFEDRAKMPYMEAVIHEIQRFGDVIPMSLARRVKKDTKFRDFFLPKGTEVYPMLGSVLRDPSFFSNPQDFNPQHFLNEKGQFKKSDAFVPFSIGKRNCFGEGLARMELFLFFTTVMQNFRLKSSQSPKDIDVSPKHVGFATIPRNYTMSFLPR

Cytochrome P450 2C8 = target: T2, Cytochrome P450 2C8 (Homo sapiens, UniProt P10632); assay: Inhibition of human CYP2C8 expressed in insect microsome after 30 mins; assay type: ADME, microsomes
T2 sequence (P10632 whole entry): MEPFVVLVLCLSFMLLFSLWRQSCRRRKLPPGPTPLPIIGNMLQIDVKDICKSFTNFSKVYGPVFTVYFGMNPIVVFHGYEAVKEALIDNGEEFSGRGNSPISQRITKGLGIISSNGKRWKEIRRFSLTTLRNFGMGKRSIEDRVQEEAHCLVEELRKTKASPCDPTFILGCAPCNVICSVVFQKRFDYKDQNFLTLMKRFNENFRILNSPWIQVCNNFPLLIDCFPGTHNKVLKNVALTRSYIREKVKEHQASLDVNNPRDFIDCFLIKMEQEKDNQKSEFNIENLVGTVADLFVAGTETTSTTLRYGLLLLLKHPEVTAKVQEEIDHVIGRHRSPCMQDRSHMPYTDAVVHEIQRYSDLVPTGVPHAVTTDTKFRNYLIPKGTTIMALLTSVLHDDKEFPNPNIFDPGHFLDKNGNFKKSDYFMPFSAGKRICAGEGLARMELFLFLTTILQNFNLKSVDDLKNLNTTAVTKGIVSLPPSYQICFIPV

Cytochrome P450 2B6 = target: T3, Cytochrome P450 2B6 (Homo sapiens, UniProt P20813); assay: Inhibition of human CYP2B6 expressed in insect microsome after 30 mins; assay type: ADME, microsomes
T3 sequence (P20813 whole entry): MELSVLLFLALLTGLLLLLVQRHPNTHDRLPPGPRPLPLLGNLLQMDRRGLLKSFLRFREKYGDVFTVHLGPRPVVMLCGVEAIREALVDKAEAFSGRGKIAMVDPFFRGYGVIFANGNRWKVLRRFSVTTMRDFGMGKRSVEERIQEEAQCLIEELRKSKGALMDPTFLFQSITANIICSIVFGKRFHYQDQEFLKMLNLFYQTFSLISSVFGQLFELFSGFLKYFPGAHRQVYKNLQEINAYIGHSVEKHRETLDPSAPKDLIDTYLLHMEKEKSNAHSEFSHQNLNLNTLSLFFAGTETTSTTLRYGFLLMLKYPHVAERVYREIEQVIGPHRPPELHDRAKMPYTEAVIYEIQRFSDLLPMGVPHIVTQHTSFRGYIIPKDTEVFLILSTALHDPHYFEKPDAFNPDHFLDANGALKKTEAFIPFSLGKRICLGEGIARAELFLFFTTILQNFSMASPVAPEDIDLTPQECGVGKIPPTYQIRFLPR

Cytochrome P450 1A2 = target: T4, Cytochrome P450 1A2 (Homo sapiens, UniProt P05177); assay: Inhibition of human CYP1A2 expressed in insect microsome after 15 mins; assay type: ADME, microsomes
T4 sequence (P05177 whole entry): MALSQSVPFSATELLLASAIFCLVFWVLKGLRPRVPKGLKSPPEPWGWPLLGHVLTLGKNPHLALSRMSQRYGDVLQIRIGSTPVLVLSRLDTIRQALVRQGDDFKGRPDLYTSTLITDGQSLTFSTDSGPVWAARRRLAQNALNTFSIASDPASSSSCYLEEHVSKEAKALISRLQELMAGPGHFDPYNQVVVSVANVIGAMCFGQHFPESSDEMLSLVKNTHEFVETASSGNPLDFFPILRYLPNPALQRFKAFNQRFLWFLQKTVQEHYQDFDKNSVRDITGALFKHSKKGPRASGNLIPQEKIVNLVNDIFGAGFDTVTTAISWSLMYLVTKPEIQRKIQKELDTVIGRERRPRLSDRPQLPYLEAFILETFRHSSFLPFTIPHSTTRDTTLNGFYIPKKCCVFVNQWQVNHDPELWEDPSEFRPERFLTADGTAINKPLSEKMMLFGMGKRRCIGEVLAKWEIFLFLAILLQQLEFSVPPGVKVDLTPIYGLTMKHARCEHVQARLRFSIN

Cytochrome P450 3A4 = Cytochrome P450 3A4 (Homo sapiens, UniProt P08684); assay: Inhibition of human CYP3A4 expressed in insect microsome using 7-benzyloxy-4-trifluoromethylcoumarin substrate after 30 mins; assay type: ADME, microsomes
Chain of Cytochrome P450 3A4 (P08684 whole entry): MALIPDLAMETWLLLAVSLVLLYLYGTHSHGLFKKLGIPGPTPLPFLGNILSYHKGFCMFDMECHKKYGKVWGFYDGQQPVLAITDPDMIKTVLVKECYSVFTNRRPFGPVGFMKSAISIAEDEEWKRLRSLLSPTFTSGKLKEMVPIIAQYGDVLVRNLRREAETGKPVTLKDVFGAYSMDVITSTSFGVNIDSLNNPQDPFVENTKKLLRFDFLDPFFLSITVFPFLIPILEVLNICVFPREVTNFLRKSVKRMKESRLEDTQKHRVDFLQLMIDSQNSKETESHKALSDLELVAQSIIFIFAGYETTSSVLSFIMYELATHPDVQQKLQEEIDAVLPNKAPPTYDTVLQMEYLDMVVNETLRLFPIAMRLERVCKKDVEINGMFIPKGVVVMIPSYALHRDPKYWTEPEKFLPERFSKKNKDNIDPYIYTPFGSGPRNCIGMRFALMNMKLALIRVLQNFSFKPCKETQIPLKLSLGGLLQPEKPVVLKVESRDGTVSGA

CEM/VLB500 = assay: Growth inhibition of human CEM/VLB500 cells at 1 uM after 3 days by resazurin assay; assay type: functional, cell-based

Chain of Cytochrome P450 2C9 (P11712 whole entry): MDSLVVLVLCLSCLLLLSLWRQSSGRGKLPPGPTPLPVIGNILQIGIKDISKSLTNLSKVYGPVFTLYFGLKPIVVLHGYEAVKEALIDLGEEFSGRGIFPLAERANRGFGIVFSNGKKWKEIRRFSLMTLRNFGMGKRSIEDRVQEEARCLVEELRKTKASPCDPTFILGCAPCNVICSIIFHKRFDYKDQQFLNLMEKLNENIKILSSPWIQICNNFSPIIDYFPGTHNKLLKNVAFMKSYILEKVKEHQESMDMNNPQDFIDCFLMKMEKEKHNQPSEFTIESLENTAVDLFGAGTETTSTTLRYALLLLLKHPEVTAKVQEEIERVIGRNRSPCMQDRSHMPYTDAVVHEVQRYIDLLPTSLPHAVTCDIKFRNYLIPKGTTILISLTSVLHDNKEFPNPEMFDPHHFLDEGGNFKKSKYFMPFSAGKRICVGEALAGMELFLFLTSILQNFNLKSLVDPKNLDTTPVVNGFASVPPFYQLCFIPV

| IC50 (Cytochrome P450 2C9) | IC50 (Cytochrome P450 2C19) | IC50 (Cytochrome P450 2D6) | IC50 (Cytochrome P450 2E1) | IC50 (Cytochrome P450 2A6) | IC50 (Cytochrome P450 2C8) | IC50 (Cytochrome P450 2B6) | IC50 (Cytochrome P450 1A2) | IC50 (Cytochrome P450 3A4) | Compound | GI50 [1] | Activity (CEM/VLB500) |
| --- | --- | --- | --- | --- | --- | --- | --- | --- | --- | --- | --- |
| > 10 µM | 23 µM | > 100 µM | > 100 µM | > 100 µM | 13.3 µM | > 100 µM | > 100 µM | 20.2 µM | COc1ccc(CN2CCN(c3ccc(NC(=O)c4ccccc4NC(=O)c4cnc5ccccc5c4)cc3)CC2)cc1OC | > 15 µM |  |
| 2.08 µM | 14.7 µM | > 100 µM | > 100 µM | > 100 µM | 5.82 µM | > 100 µM | > 100 µM | 1.62 µM | COc1ccc(CCN(C)CCNC(=O)c2ccccc2NC(=O)c2cnc3ccccc3c2)cc1OC |  |  |
|  |  |  |  |  |  |  |  |  | O=C(Nc1ccccc1C(=O)N[C@@H]1CCCC[C@@H]1N1CCN(c2ccccc2)CC1)c1cnc2ccccc2c1 (racemic) | 11.5 µM |  |
|  |  |  |  |  |  |  |  |  | COc1ccc(CCN(C)CCC[C@@](C#N)(c2ccc(OC)c(OC)c2)C(C)C)cc1OC | > 15 µM |  |
|  |  |  |  |  |  |  |  |  | COc1ccc(CCN2CCC[C@@H]2CNC(=O)c2ccccc2NC(=O)c2cnc3ccccc3c2)cc1OC | > 15 µM |  |
|  |  |  |  |  |  |  |  |  | COc1ccc(CCN2CCC[C@H]2CNC(=O)c2ccccc2NC(=O)c2cnc3ccccc3c2)cc1OC | > 15 µM |  |
| 0.0968 µM | 0.393 µM | 17.3 µM |  |  | 1.08 µM | 100 µM | 6.68 µM | 0.195 µM | COc1ccc(CN2CCN(c3ccc(NC(=O)c4cc(OC)c(OC)cc4NC(=O)c4cnc5ccccc5c4)cc3)CC2)cc1OC | ≥ 15 µM | inactive |

| Compound | IC50 (Cytochrome P450 2C9) | IC50 (Cytochrome P450 2C19) | IC50 (Cytochrome P450 2D6) | IC50 (Cytochrome P450 2E1) | IC50 (Cytochrome P450 2A6) | IC50 (Cytochrome P450 2C8) | IC50 (Cytochrome P450 2B6) | IC50 (Cytochrome P450 1A2) | IC50 (Cytochrome P450 3A4) | GI50 [1] | Activity (CEM/VLB500) |
| --- | --- | --- | --- | --- | --- | --- | --- | --- | --- | --- | --- |
| COc1cc2c(cc1OC)CN(CCc1ccc(NC(=O)c3cc(OC)c(OC)cc3NC(=O)c3cnc4ccccc4c3)cc1)CC2 | 7.1 µM | > 10 µM | 100 µM | > 100 µM | > 100 µM | 45.3 µM | > 100 µM |  |  | 13.5 µM |  |
